The text below walks through data of patent publication US20240058460A1, “METHODS AND COMPOUNDS FOR MODULATING HUNTINGTON'S DISEASE” (Design Therapeutics, Inc., priority 2022, published 2024).

Assay type in all cases: cell-based
Test [1] concerns human HTT C allele (SNP rs362331C/T) mRNA in GM09197 fibroblasts. As to the kind of experiment: HTT mRNA, allele-specific RT-PCR in GM09197 fibroblasts, C allele. Conditions: for GM 09197 E min 48 Hr C Allele (%): lowest % HTT observed at 0.5 nM to 1000 nM compound; for IC50: Homo sapiens, Fibroblast, 48 hr, C allele HTT mRNA normalized to GAPDH, relative to vehicle. How it is done: (§1) Molecular Biology Toolkit: • qPCR primer probe sets: • RNA input normalization was assessed utilizing human glyceraldehyde 3-phosphate dehydrogenase (hGAPDH) TaqMan assay (ThermoFisher cat #4351370) or Human Cyclophillin ([…]) TaqMan assay (ThermoFisher cat #4351372) • Total HTT detection was assessed utilizing human Htt TaqMan assay (ThermoFisher cat #4331182) • Allele-specific detection of human HTT expression in HD cells containing the SNP rs362331C/T (Exon 50): for each assay, allele-specific probes to detect the SNP variant contained locked nucleic acid bases to improve allele discrimination, as compared to unmodified DNA probes. • 362331-F (331 forward primer) • 362331-R (331 reverse primer) • 362331-C probe: TCC CTC ATC+C+AC TGT GT • 362331-T probe: CTC+A+T+C+T+A+C TGT GT • qPCR was performed using Agpath ID one-step reverse transcriptase polymerase chain reaction (RT-PCR) reagent
(§2) Screening of HD molecules methods: GM09197 and/or GM04022 fibroblasts were cultured in T175 flasks incubated at 37° C. and 5% CO2. Once confluency was reached, the media was removed, the cells were washed with 1×PBS, and cells were dissociated using TrypLE™ Express Enzyme. Media was added to the enzyme and collected into a 15-mL conical tube and centrifuged at 500×g for 5 minutes to pellet the cells. Media and enzyme were aspirated using a serological pipette. Cells were resuspended in fresh media and counted using a Countess 3 Automated Cell Counter. Cells were plated at a density of 15,000 cells/well in a tissue culture-treated polystyrene 96-well dish and incubated at 37° C. and 5% CO2 overnight. The next day, media was removed using an 8-channel aspirator. 200 μL media/well are added back into the plate. The molecules are formulated to 1 mM and are dispensed using a Multidrop™ Pico 8 Digital Dispenser. After a 48-hour incubation with compounds, media was removed from plates, cells were washed with 1×PBS, and cells were lysed in 40 μL per well guanidinium thiocyanate buffer. RNA was isolated and purified in 382-well glass fiber column plates using chaotropic salts. Human mtHTT, wtHTT, and GAPDH mRNA were measured via RT-PCR using the ThermoFisher QuantStudio™ 7 Flex System in 384-well format. Results of HTT levels were normalized to GAPDH mRNA levels. Normalized HTT mRNA levels were expressed relative to vehicle-treated samples to assess fold change after molecule treatment.
(§3) Emin for each compound is the lowest % HTT concentration observed within a compound concentration of 0.5 nM to 1000 nM.

Test [2] relates to human HTT T allele (SNP rs362331C/T) mRNA in GM09197 fibroblasts. As to the kind of experiment: HTT mRNA, allele-specific RT-PCR in GM09197 fibroblasts, T allele. Conditions: for IC50: Homo sapiens, Fibroblast, 48 hr, T allele HTT mRNA normalized to GAPDH, relative to vehicle; for Gm09197 Emin 48 hr T Allele (%): lowest % HTT observed at 0.5 nM to 1000 nM compound. How it is done: as §1, §2, §3

Test [3] relates to human HTT C allele (SNP rs362331C/T) mRNA in GM04022 fibroblasts. As to the kind of experiment: HTT mRNA, allele-specific RT-PCR in GM04022 fibroblasts, C allele. As to conditions: for GM 04022Emin 48 hr C Allele: lowest % HTT observed at 0.5 nM to 1000 nM compound. How it is done: as §1
as §2, with “After a 48-hour incubation with compounds, media was removed from plates, cells were washed with 1×PBS, and cells were lysed in 40 μL per well guanidinium thiocyanate buffer. RNA was isolated and purified in 382-well glass fiber column plates using chaotropic salts.” left out, “Results of HTT levels were normalized to GAPDH mRNA levels. Normalized HTT mRNA levels were expressed relative to vehicle-treated samples to assess fold change after molecule treatment.” left out

The subject of test [4] is human HTT T allele (SNP rs362331C/T) mRNA in GM04022 fibroblasts. As to the kind of experiment: HTT mRNA, allele-specific RT-PCR in GM04022 fibroblasts, T allele. As to conditions: for IC50: Homo sapiens, Fibroblast, 48 hr, T allele HTT mRNA normalized to GAPDH, relative to vehicle; for GM04022 Emin 48 hr T Allele: lowest % HTT observed at 0.5 nM to 1000 nM compound. On the procedure:
as §1, §2, §3

The term IC50 denotes the concentration that gives 50% inhibition.

Bounds are passed on as bounds.

Consider `Cn1cc(NC(=O)c2nc(NC(=O)CCNC(=O)c3cc(NC(=O)c4nccn4C)cn3C)cn2C)cc1C(=O)NCCCC(=O)Nc1cn(C)c(C(=O)NCCC(=O)Nc2cc(C(=O)Nc3cn(C)c(C(=O)NCCC(=O)NCCOCCOCCOCCOCCOCCOCCOCCOCCOCCOCCOCCOCCOCCOCCOCCOc4ccc(NC(=O)c5cc6c(-c7cc(S(C)(=O)=O)ccc7Oc7ccc(F)cc7F)cn(C)c(=O)c6[nH]5)cc4)n3)n(C)c2)n1` [Compound A-2], for which the “GM 09197 E min 48 Hr C Allele (%)” value in test [1] is listed as “A (A>90%)”. Moreover, in test [2], the midpoint of inhibition, the IC50, lay at 0.032 µM and the “Gm09197 Emin 48 hr T Allele (%)” value is on record as “C (C<80%)”. Moreover, the “GM 04022Emin 48 hr C Allele” value in test [3] is “A (A>90%)”. Moreover, in test [4], the IC50 is greater than 1 µM and the “GM04022 Emin 48 hr T Allele” value is listed as “C (C<80%)”.

With `CC(=O)N1c2ccc(-c3ccn(-c4ccc(OCCOCCOCCOCCOCCOCCOCCOCCOCCOCCOCCOCCOCCOCCOCCOCCNC(=O)CCNC(=O)c5nc(NC(=O)c6cc(NC(=O)CCNC(=O)c7nc(NC(=O)CCCNC(=O)c8cc(NC(=O)c9nc(NC(=O)CCNC(=O)c%10cc(NC(=O)c%11nccn%11C)cn%10C)cn9C)cn8C)cn7C)cn6C)cn5C)cc4)n3)cc2[C@H](Nc2ccc(C#N)cc2)C[C@@H]1C` [Compound A-58], the IC50 in test [1] and in test [2] was greater than 1 µM each time.

Consider `CC(=O)N1c2ccc(-c3ccn(-c4ccc(OCCOCCOCCOCCOCCOCCOCCOCCOCCNC(=O)CCNC(=O)c5nc(NC(=O)c6cc(NC(=O)CCNC(=O)c7nc(NC(=O)CCCNC(=O)c8cc(NC(=O)c9nc(NC(=O)CCNC(=O)c%10cc(NC(=O)c%11nccn%11C)cn%10C)cn9C)cn8C)cn7C)cn6C)cn5C)cc4)n3)cc2[C@H](Nc2ccc(C#N)cc2)C[C@@H]1C` [Compound A-59], for which the IC50 in test [1] and in test [2] was greater than 1 µM each time.

Take `CCNS(=O)(=O)c1ccc(Oc2ccc(OCCOCCOCCOCCOCCOCCOCCOCCOCCOCCOCCOCCOCCOCCOCCOCCNC(=O)CCNC(=O)c3nc(NC(=O)c4cc(NC(=O)CCNC(=O)c5nc(NC(=O)CCCNC(=O)c6cc(NC(=O)c7nc(NC(=O)CCNC(=O)c8cc(NC(=O)c9nccn9C)cn8C)cn7C)cn6C)cn5C)cn4C)cn3C)cc2F)c(-c2cn(C)c(=O)c3[nH]ccc23)c1` [Compound A-68]: the “GM 09197 E min 48 Hr C Allele (%)” value in test [1] is “A (A>90%)”. For the same molecule, in test [2], the IC50 came out at 0.017 µM and the “Gm09197 Emin 48 hr T Allele (%)” value was “C (C<80%)”.

In the case of `CCS(=O)(=O)Nc1ccc(Oc2ccc(F)cc2F)c(-c2cn(C)c(=O)c3[nH]c(C(=O)Nc4ccc(OCCOCCOCCOCCOCCOCCOCCOCCOCCOCCOCCOCCOCCOCCOCCOCCNC(=O)CCNC(=O)c5nc(NC(=O)c6cc(NC(=O)CCNC(=O)c7nc(NC(=O)OCCNC(=O)c8cc(NC(=O)c9nc(NC(=O)CCNC(=O)c%10cc(NC(=O)c%11nccn%11C)cn%10C)cn9C)cn8C)cn7C)cn6C)cn5C)cc4)cc23)c1` [Compound A-72], in test [1], the IC50 was greater than 1 µM. In addition, in test [2], the IC50 is greater than 1 µM and the “Gm09197 Emin 48 hr T Allele (%)” value was “A (A>90%)”.

Take `Cc1sc2c(c1C)C(c1ccc(Cl)cc1)=N[C@@H](CC(=O)Nc1ccc(OCCOCCOCCOCCOCCOCCOCCOCCOCCOCCOCCOCCOCCOCCOCCOCCNC(=O)CCNC(=O)c3nc(NC(=O)c4cc(NC(=O)CCNC(=O)c5nc(NC(=O)OCCNC(=O)c6cc(NC(=O)c7nc(NC(=O)CCNC(=O)c8cc(NC(=O)c9nccn9C)cn8C)cn7C)cn6C)cn5C)cn4C)cn3C)cc1)c1nnc(C)n1-2` [Compound A-73]: in test [1], the “GM 09197 E min 48 Hr C Allele (%)” value is given as “A (A>90%)” and the IC50 is greater than 1 µM. Further, in test [2], the IC50 is greater than 1 µM and the “Gm09197 Emin 48 hr T Allele (%)” value is reported as “A (A>90%)”.

The molecule `CCS(=O)(=O)Nc1ccc(Oc2ccc(F)cc2F)c(-c2cn(C)c(=O)c3[nH]c(C(=O)Nc4ccc(OCCOCCOCCOCCOCCOCCOCCOCCOCCOCCOCCOCCOCCOCCOCCOCCNC(=O)CCNC(=O)c5nc(NC(=O)c6cc(NC(=O)CCNC(=O)c7nc(NC(=O)NCCNC(=O)c8cc(NC(=O)c9nc(NC(=O)CCNC(=O)c%10cc(NC(=O)c%11nccn%11C)cn%10C)cn9C)cn8C)cn7C)cn6C)cn5C)cc4)cc23)c1` [Compound A-74] registered an IC50 in test [1] greater than 1 µM. Moreover, in test [2], the IC50 was greater than 1 µM and the “Gm09197 Emin 48 hr T Allele (%)” value was “A (A>90%)”.

Consider `Cc1sc2c(c1C)C(c1ccc(Cl)cc1)=N[C@@H](CC(=O)Nc1ccc(OCCOCCOCCOCCOCCOCCOCCOCCOCCOCCOCCOCCOCCOCCOCCOCCNC(=O)CCNC(=O)c3nc(NC(=O)c4cc(NC(=O)CCNC(=O)c5nc(NC(=O)NCCNC(=O)c6cc(NC(=O)c7nc(NC(=O)CCNC(=O)c8cc(NC(=O)c9nccn9C)cn8C)cn7C)cn6C)cn5C)cn4C)cn3C)cc1)c1nnc(C)n1-2` [Compound A-75], for which, in test [1], the “GM 09197 E min 48 Hr C Allele (%)” value is reported as “A (A>90%)” and the IC50 was greater than 1 µM. Moreover, in test [2], the IC50 is greater than 1 µM and the “Gm09197 Emin 48 hr T Allele (%)” value is on record as “A (A>90%)”.

For the molecule `C/C=C/Cn1cc(-c2cc(OC)c(C(=O)N3CCN(CCOCCOCCOCCOCCOCCOCCOCCOCCOCCOCCOCCOCCOCCOCCOCCNC(=O)CCNC(=O)c4nc(NC(=O)c5cc(NC(=O)CCNC(=O)c6nc(NC(=O)CCCNC(=O)c7cc(NC(=O)c8nc(NC(=O)CCNC(=O)c9cc(NC(=O)c%10nccn%10C)cn9C)cn8C)cn7C)cn6C)cn5C)cn4C)CC3)cc2OC)c2cc[nH]c2c1=O` [Compound A-76], in test [1], the “GM 09197 E min 48 Hr C Allele (%)” value is recorded as “A (A>90%)” and the half-inhibitory concentration (IC50) was greater than 1 µM. In addition, in test [2], the IC50 is greater than 1 µM and the “Gm09197 Emin 48 hr T Allele (%)” value is given as “A (A>90%)”. In test [3], the “GM 04022Emin 48 hr C Allele” value was “A (A>90%)”. In test [3] (Homo sapiens, Fibroblast, 48 hr, C allele HTT mRNA normalized to GAPDH, relative to vehicle), this molecule gave an IC50 greater than 1 µM. Besides, in test [4], the IC50 was greater than 1 µM and the “GM04022 Emin 48 hr T Allele” value is reported as “A (A>90%)”.
